From EP0966972B1, “Topical composition containing silicon gum” (Dow Corning France S.A., priority 1998, dated 1999)

Assay: Substantivity of silicone gum formulation on skin (FT-IR/ATR)
Format: in vivo, human
Conditions: 10 seconds after spraying
Description: The forearms of volunteers were cleaned and then sprayed in several areas with the formulation of Example 4. […] A FT-IR/ATR cell was used to take an IR spectrum at each area sprayed. […] An IR of the cleansed forearm skin was used as a control blank. The percentage of silicone remaining on the skin was calculated by comparing the height of the specific silicon peak height (1255 cm^-1)/ specific skin peak height (1538 cm^-1) in the blank test.

C[Si](C)(C)O[Si](C)(C)C [HMDS, hexamethyldisiloxane]
detectability on the skin: not detectable
